The test has as its target T1, SIRT1 (Homo sapiens, UniProt Q96EB6).
T1 construct: recombinant SIRT1
T1 sequence (Q96EB6 2-747): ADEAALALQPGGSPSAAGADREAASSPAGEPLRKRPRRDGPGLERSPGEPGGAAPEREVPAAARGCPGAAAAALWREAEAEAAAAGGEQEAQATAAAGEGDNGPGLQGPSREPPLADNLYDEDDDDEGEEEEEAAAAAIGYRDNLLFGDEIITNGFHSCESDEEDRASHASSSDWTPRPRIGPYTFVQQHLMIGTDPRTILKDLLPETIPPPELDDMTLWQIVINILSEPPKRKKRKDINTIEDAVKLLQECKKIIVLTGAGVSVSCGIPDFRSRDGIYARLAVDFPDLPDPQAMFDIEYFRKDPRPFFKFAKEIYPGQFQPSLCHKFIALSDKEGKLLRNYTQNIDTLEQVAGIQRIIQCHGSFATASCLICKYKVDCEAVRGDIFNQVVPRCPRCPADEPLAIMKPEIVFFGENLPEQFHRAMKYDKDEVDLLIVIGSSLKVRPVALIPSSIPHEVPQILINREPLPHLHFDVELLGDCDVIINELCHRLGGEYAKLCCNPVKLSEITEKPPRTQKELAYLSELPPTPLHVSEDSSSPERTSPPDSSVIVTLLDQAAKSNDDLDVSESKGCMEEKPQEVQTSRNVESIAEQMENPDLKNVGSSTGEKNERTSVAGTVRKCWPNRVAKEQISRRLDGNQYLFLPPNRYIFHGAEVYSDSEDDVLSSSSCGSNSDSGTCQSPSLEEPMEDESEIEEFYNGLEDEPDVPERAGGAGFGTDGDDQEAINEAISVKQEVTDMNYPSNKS
Put plainly: in vitro deacetylase assay with recombinant enzyme and [3H] acetylated histone H4 peptide. The format is biochemical.

The text below walks through data of article PMC1315280, “The Flavoring Agent Dihydrocoumarin Reverses Epigenetic Silencing and Inhibits Sirtuin Deacetylases” (PLoS Genetics, 2005).

In general, IC50 refers to the point on the concentration scale where inhibition reaches its midpoint.

Take `O=C1CCc2ccccc2O1` [DHC, dihydrocoumarin]: the IC50 is 208 µM.
